Assay results: publication PMC8198714, “New Coumarin Derivatives as Cholinergic and Cannabinoid System Modulators” (Molecules, 2021)
Where two headings read alike, the source gives them in different places.

Key:
[1] = molecular target: T1, human recombinant AChE (hAChE) (Homo sapiens, UniProt P22303); test: Inhibition of human AChE, Ellman's method; assay type: biochemical; conditions: for inhibition at 40 µM: [I] = 40 µM, read-out: hAChE % Inhibition (±SEM); for IC50: human recombinant AChE
T1 construct: purchased Sigma-Aldrich, Merck group, Milan, Italy
T1 sequence (P22303 32-614): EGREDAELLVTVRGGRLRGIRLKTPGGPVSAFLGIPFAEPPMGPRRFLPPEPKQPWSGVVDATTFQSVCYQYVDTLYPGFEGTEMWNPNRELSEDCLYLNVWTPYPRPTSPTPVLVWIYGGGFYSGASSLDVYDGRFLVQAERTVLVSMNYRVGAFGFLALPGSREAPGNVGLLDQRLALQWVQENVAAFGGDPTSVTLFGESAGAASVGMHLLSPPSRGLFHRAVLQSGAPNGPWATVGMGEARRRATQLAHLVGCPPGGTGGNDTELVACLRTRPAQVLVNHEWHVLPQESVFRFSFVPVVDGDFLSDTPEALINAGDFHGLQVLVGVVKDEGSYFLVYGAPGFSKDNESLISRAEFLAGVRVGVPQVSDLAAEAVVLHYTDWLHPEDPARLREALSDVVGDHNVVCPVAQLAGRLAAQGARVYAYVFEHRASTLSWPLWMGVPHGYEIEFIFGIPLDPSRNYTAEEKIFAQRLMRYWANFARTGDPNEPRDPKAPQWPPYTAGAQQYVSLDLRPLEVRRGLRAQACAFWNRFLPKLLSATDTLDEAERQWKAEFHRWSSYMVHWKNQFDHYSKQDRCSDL
Description: (§1) The capacity of 2–7 to inhibit human ChE activity was assessed using the Ellman’s method. Initial rate assays were performed at 37 °C with a V-530 double beam spectrophotometer (Jasco Corporation, Cremella (LC), Italy city, state/prov abbrev if USA/Canada, country). […] AChE stock solution was prepared by dissolving human recombinant AChE lyophilized powder (Sigma-Aldrich, Merck group, Milan, Italy) in 0.1 M phosphate buffer at pH 8.0 containing 0.1% Triton X-100. Stock solution of BuChE was prepared by diluting commercial stock solution of BuChE from human serum (Sigma) in an aqueous solution of gelatin (0.2%) in order to have a final activity comprised between 0.11–0.15 ΔAbs/min. Stock solutions of inhibitors (1–2 mM) were prepared in methanol and diluted in methanol. […] Incubation times were: 60 min for 2 and 90 min for 3 and 4 on hAChE assay, and 45 min for 2 and 60 min for 3 and 4 on hBuChE assay, as assessed on the preliminary determination of the carbamoylation rate. Blank solutions containing all components except the enzyme were prepared in order to account for the non-enzymatic hydrolysis of the substrate. The reaction rates obtained in the absence and presence of inhibitor were compared and the percent inhibition due to the presence of inhibitor was calculated. […] Two independent experiments were performed for the determination of each IC50 value or for the calculation of the % of inhibition where the IC50 value could not be determined because of low inhibitory activity.

Aβ42 self-aggregation = molecular target: T2, Aβ42 self-aggregation (Homo sapiens, UniProt P05067); test: Inhibition of Aβ42 self-aggregation, thioflavin T fluorescence; assay type: biochemical; conditions: read-out: % Inhibition Aβ42 self-aggregation (±SEM)
T2 construct: pretreated Aβ42 samples (Bachem AG, Bubendorf, Switzerland); purchased Bachem AG, Bubendorf, Switzerland
T2 sequence (P05067 672-713 limits assumed): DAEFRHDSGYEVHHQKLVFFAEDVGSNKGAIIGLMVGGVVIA
Description: Finally, in a multitarget perspective, the compounds were tested to evaluate their Aβ anti-aggregation properties.
As reported in a previously published protocol, 1,1,1,3,3,3-hexafluoro, 2-propanol pretreated Aβ42 samples (Bachem AG, Bubendorf, Switzerland) were solubilized with a CH3CN/0.3 mM Na2CO3/250 mM NaOH (48.4:48.4:3.2) mixture. Experiments were performed by incubating the peptide in 10 mM phosphate buffer (pH = 8.0) containing 10 mM NaCl, at 30 °C for 24 h (final Aβ concentration = 50 μM) with and without inhibitor (50 μM, Aβ/inhibitor = 1/1). Blanks containing the tested inhibitors were also prepared and tested. To quantify amyloid fibrils formation, the thioflavin T (ThT) fluorescence method was used. After incubation, samples were diluted to a final volume of 2.0 mL with 50 mM glycine-NaOH buffer (pH 8.5) containing 1.5 μM ThT. A 300 s-time scan of fluorescence intensity was carried out (λexc = 446 nm; λem = 490 nm, FP-6200 fluorometer, Jasco Europe), and values at plateau were averaged after subtracting the background fluorescence of 1.5 μM ThT solution. The fluorescence intensities were compared and the percent inhibition due to the presence of the inhibitor.

[2] = molecular target: T3, human recombinant CB2 receptor (Homo sapiens, UniProt P34972); test: Competition binding assay with [3H]-CP-55,940 at CB2; conditions: for Ki: [3H]-CP55940 displacement, HEK-293 membranes, read-out: Ki on CB2 (m ± sd); for % Displacement at max tested on CB2 (m ± sd): max tested concentration 10 µM, [3H]-CP55940
T3 construct: purchased Perkin Elmer, Milan, Italy; host or cells: HEK-293
T3 sequence (P34972 whole entry): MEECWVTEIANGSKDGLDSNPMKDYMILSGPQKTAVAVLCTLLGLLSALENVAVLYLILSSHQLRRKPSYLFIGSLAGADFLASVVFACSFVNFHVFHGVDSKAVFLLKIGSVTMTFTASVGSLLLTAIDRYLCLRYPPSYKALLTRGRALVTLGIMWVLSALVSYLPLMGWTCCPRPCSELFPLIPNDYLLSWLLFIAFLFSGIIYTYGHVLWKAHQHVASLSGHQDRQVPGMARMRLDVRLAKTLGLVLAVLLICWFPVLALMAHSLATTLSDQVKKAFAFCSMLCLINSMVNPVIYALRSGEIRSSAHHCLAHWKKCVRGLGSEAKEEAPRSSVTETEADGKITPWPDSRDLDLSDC
Description: (§2) Competition binding assay for CB1 and CB2 receptors was performed as previously reported. […] All compounds were tested following the procedure described by the manufacturer (Perkin Elmer, Milan, Italy).

[3] = molecular target: T4, human recombinant CB1 receptor (Homo sapiens, UniProt P21554); test: Competition binding assay with [3H]-CP-55,940 at CB1; conditions: for Ki: [3H]-CP55940 displacement, HEK-293 membranes, read-out: Ki on CB1 (m ± sd); for % Displacement at max tested on CB1 (m ± sd): max tested concentration 10 µM, [3H]-CP55940
T4 construct: purchased Perkin Elmer, Milan, Italy; host or cells: HEK-293
T4 sequence (P21554 whole entry): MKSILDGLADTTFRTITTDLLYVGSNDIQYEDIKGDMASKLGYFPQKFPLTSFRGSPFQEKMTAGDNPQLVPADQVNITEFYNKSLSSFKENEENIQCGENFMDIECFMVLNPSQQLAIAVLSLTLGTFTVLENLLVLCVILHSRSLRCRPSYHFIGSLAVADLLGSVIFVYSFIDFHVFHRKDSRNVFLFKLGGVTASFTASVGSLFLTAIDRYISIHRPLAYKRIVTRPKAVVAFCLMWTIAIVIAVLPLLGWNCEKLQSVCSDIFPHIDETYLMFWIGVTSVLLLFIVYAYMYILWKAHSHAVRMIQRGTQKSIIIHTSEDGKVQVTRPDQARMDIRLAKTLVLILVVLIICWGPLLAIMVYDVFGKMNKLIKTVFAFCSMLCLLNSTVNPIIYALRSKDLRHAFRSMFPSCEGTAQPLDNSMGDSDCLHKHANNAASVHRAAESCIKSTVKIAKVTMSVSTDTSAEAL
Description: as §2

[4] = molecular target: T5, BuChE from human serum (hBuChE) (Homo sapiens, UniProt P06276); test: Inhibition of human BuChE, Ellman's method; assay type: biochemical; conditions: for IC50: BuChE from human serum
T5 construct: commercial stock solution of BuChE from human serum (Sigma); purchased Sigma; host or cells: human serum
T5 sequence (P06276 29-602): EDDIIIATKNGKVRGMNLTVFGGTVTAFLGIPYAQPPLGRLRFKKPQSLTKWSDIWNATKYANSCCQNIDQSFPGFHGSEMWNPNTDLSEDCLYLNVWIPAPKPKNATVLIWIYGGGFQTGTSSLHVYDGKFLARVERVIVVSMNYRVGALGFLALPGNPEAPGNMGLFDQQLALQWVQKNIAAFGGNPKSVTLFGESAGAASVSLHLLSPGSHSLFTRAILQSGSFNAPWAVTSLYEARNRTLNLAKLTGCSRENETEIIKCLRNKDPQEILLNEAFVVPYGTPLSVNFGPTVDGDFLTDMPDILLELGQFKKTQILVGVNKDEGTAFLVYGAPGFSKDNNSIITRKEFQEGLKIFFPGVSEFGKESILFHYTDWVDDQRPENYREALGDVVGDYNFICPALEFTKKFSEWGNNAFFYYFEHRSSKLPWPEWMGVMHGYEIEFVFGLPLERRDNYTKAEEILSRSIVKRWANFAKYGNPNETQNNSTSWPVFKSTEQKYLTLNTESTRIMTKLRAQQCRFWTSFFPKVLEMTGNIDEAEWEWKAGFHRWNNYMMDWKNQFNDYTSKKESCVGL
Description: as §1

[5] = molecular target: T6, FAAH in rat brain membranes (Rattus norvegicus, UniProt P97612); test: FAAH assay, [14C]-AEA hydrolysis in rat brain membranes
T6 sequence (P97612 1-579): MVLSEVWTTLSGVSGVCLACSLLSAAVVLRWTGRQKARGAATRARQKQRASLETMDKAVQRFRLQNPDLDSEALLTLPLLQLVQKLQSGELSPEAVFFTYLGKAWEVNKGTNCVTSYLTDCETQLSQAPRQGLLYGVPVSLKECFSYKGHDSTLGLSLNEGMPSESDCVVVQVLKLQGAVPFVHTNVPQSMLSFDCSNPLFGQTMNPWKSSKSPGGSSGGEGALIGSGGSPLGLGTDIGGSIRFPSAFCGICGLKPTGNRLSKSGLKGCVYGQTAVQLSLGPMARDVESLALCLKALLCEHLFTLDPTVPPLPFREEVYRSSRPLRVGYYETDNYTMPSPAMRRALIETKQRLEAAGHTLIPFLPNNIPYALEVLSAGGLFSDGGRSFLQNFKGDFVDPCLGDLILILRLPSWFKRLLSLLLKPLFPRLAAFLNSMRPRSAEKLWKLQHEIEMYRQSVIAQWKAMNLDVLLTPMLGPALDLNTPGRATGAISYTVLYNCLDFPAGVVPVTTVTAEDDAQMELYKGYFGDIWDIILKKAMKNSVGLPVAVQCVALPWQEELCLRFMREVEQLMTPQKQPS

[6] = molecular target: T6, FAAH in rat brain membranes; conditions: read-out: IC50 FAAH with 20 min Pre-incubation; cited from earlier work
hAChE = molecular target: T7, hAChE (Homo sapiens, UniProt P22303); test: Stopped time assay of hAChE carbamoylation; assay type: biochemical; conditions: determined at IC50 value
T7 construct: purchased Sigma-Aldrich, Merck group, Milan, Italy
T7 sequence (P22303 32-614): as the sequence (P22303 32-614) above
Description: Given these premises, we initially investigated the time-dependent ChEs inhibition by 2–4 by evaluating the time required to achieve a plateau in the inhibition plot.
A stopped time assay was performed in order to define the time required for enzyme carbamoylation. In detail, residual enzyme activity upon selected incubation times was assessed by following the same protocol described in section “Determination of the inhibitory potency towards human AChE and BuChE”. […] The mixture was incubated at 37 °C for given times (from 5 to 90 min) before the addition of the substrate (AChT or BChT, respectively) and the determination of residual enzyme activity by Ellman’s method. A parallel control, with no inhibitor, allowed to adjust activities measured at various time.

[7] = incubation 20 min, read-out: hBuChE IC50 (±SEM)
[8] = incubation time 60 min, read-out: IC50 hBuChE (±SEM)
[9] = IC50 FAAH (m ± sd), rat brain membranes, AEA hydrolysis, without pre-incubation
[10] = IC50 FAAH with 20 min Pre-incubation, rat brain membranes, 20 min pre-incubation at 37 °C

| Structure (SMILES) | inhibition at 40 µM ([1]; incubation 20 min) | inhibition at 50 µM (Aβ42 self-aggregation) | Ki [2] | % Displacement at max tested on CB2 (m ± sd) [2] | Ki [3] | % Displacement at max tested on CB1 (m ± sd) [3] | IC50 [4, 7] | IC50 [5] | IC50 [5, 9] | IC50 [5, 10] | further results |
| --- | --- | --- | --- | --- | --- | --- | --- | --- | --- | --- | --- |
| CN(CCCOc1ccc2ccc(=O)oc2c1)Cc1cccc(OCC(=O)NC2CCCC2)c1 [Compound 6, N-Cyclopentyl-2-(3-((methyl(3-((2-oxo-2H-chromen-7yl)oxy)propyl)amino)methyl)phenoxy)-acetamide] | 41.7 ± 0.5% | 20.3 ± 1.9% | > 10 µM | 10 (48.33 ± 1.73) % | > 10 µM | 10 (35.75 ± 0.65) % | 11.6 ± 0.8 µM | > 1000 µM |  |  | IC50 ([1]; incubation 20 min, read-out: IC50 hAChE): 59.4 µM |
| CN(CCCOc1ccc2ccc(=O)oc2c1)Cc1cccc(OCC(=O)NC2CCCCC2)c1 [Compound 7, N-Cyclohexyl-2-(3-((methyl(3-((2-oxo-2H-chromen-7-yl)oxy)propyl)amino)methyl)phenoxy)-acetamide] | 34 ± 3.2% | 13.5 ± 5% | > 10 µM | 10 (14.3 ±3.83) % | > 10 µM | 10 (39.62 ± 10.48) % | 12.8 ± 2.1 µM | > 1000 µM |  |  |  |
| CN(CCCOc1ccc2ccc(=O)oc2c1)Cc1cccc(OC(=O)Nc2ccc3ccccc3c2)c1 [Compound 4, 3-((Methyl(3-((2-oxo-2H-chromen-7-yl)oxy)propyl)amino)methyl)phenyl naphthalen-2-ylcarbamate] |  | 13.9 ± 3.8% |  |  |  |  |  |  | 1.58 ± 0.26 µM | 0.63 ± 0.08 µM | IC50 [4, 8]: 0.002 ± 0.0002 µM; difference in IC50 values hAChE vs hBuChE (selectivity) ([4]; hBuChE over hAChE): 100 fold |
| CCCCCCCNC(=O)Oc1cccc(CN(C)CCCOc2ccc3ccc(=O)oc3c2)c1 [Compound 1] |  |  |  |  |  |  |  |  |  |  | IC50 [6]: 0.029 ± 0.001 µM |
| CN(CCCOc1ccc2ccc(=O)oc2c1)Cc1cccc(OC(=O)NC2CCCC2)c1 [Compound 2, 3-((Methyl(3-((2-oxo-2H-chromen-7-yl)oxy)propyl)amino)methyl)phenyl cyclopentylcarbamate] |  | 22.9 ± 1.3% |  |  |  |  |  |  | 6.09 ± 1.55 µM | 2.53 ± 0.55 µM | IC50 ([1]; incubation time 60 min, read-out: IC50 hAChE (±SEM)): 0.521 ± 0.014 µM; IC50 ([4]; incubation time 45 min, read-out: IC50 hBuChE (±SEM)): 0.00842 ± 0.00013 µM; pseudo-first order kobs of hAChE carbamoylation (hAChE): 0.038 min⁻¹ |
| CCCCCCCNC(=O)COc1cccc(CN(C)CCCOc2ccc3ccc(=O)oc3c2)c1 [Compound 5, N-Heptyl-2-(3-((methyl(3-((2-oxo-2H-chromen-7-yl)oxy)propyl)amino)methyl)phenoxy)acetamide] | 13.6 ± 5.1% |  | > 10 µM | 10 (41.41 ± 0.87) % | > 10 µM | 10 (35.57 ± 0.43) % | 182 ± 28 µM | > 1000 µM |  |  |  |
| CN(CCCOc1ccc2ccc(=O)oc2c1)Cc1cccc(OC(=O)NC2CCCCC2)c1 [Compound 3, 3-((Methyl(3-((2-oxo-2H-chromen-7-yl)oxy)propyl)amino)methyl)phenyl cyclohexylcarbamate] |  | 18.9 ± 2.1% |  |  |  |  |  |  | 2.55 ± 0.33 µM | 1.33 ± 0.28 µM | IC50 ([1]; incubation time 90 min, read-out: IC50 hAChE (±SEM)): 0.104 ± 0.021 µM; IC50 [4, 8]: 0.0349 ± 0.0042 µM |
